{
  "source": "patent US20230025280A1",
  "about": "“PH RESPONSIVE COMPOSITIONS, FORMULATIONS, AND METHODS OF IMAGING A TUMOR” (ONCONANO MEDICINE, INC, priority 2019, published 2023)",
  "key": {"[1]": {"test_system": "breast cancer, HNSCC, prostate cancer, and ovarian cancer", "experiment": "Phase 2 imaging of tumors 3-6 hours post dosing with multiple NIR cameras", "type": "in vivo, human", "method": "The study also utilized data collected from different NIR cameras and from multiple sites. All patients received a single I.V. dose of Compound 1, followed by routine surgery approximately 3-6 hours after infusion of Compound 1. Pre-excision and post-excision intraoperative and backtable visualization a tumor from a breast cancer patient (101-001; UPenn; VisionSense NIR camera) dosed with Compound 1 (2 mg/kg) 6±3 hr prior to surgery and an HNSCC cancer patient (102-007; UTSW; NOVADAQ SPY Elite NIR camera) dosed with Compound 1 (3 mg/kg) 6±3 hr prior to surgery are shown in FIG. 22. In each case, white light imaging of the pre- or post-excised tumor/specimen is juxtaposed with an overlay of the fluorescence observed and the white light image, indicating the presence of the tumor. Intraoperative/in vivo imaging of prostate cancer from two patients (102-008 and 102-009; UTSW; Da Vinci Firefly NIR camera with updated software/hardware) dosed with Compound 1 (3 mg/kg) 6±3 hr prior to excision of the tumor and the imaging of wound bed after excision of the tumor are shown in FIG. 23. In each case, white light imaging of the pre-excised tumor/specimen and the surgical wound bed are juxtaposed with images of the fluorescence observed. […] A tumor from a patient (101-005) with ovarian cancer dosed with Compound 1 (3 mg/kg, 6±3 hr) was imaged in vivo pre-excision as shown in FIG. 24. A white light image juxtaposed with an overlay of the fluorescence observed and the white light image, indicating the presence of the tumor."}, "[2]": {"test_system": "tumor positive surgical margins", "experiment": "Fluorescence detection of tumor positive surgical margins versus final histopathology", "type": "in vivo, human", "details": "1.2 mg/kg; EC; per patient"}, "[3]": {"experiment": "Safety (adverse effects) in dog-patients", "type": "in vivo", "details": "7 dogs; 0.5-2.0 mg/kg; injection through discharge", "method": "Materials and methods: After evaluation and recruitment for the study, dog-patients underwent (A) pre-operation analysis to identify possible types of lesion, and (B) Compound 1 tracer was administrated at 0.5 to 2.0 mg/kg, 18-78 hours prior to surgery. During the surgery (C) intra-operative imaging was performed using a Hamamatsu PDE or custom NIR camera before and after tumor removal (or after limb amputations). Resected tissues were (D) imaged with a LI-COR Pearl Imaging station and tumor-to-normal-tissue ratios were calculated accordingly. The resected tissues were then (E) preserved for histopathology validation. Safety was assessed separately in terms of adverse effects through physical examinations, laboratory tests and the recording of adverse events from infusion through discharge from hospital.\nResults: A summary of the data from spayed or neutered dog patients that were recruited for the study is shown below (Table 16). Results from a total of seven dogs of different breeds, aged 4-12 years, body weights ranging from 20.9-59.5 kg, and with a range of tumors ware presented, including instances where more than one tumor was present. Doses studied thus far ranged from 0.5-2.0 mg/kg. […] Both acute and chronic adverse effects were monitored from the time of injection through discharge of the animals from the hospital and follow-up appointments (to remove sutures) and noted."}, "[4]": {"experiment": "pH-dependent activation of Compound 1 in human plasma"}},
  "data": [
    {"substance": "PEO90-140-b-P(DBA60-150-r-ICG0-3-r-AMA0-3) [Compound 1]", "values": [
      {"measurement": "Intraoperative fluorescence in prostate cancer", "setting": "[1]; 3 mg/kg, 6±3 hr, Da Vinci Firefly camera", "value": "fluoresced intraoperatively"},
      {"measurement": "Fluorescence in the surgical bed after prostate tumor excision", "setting": "[1]; 3 mg/kg, 6±3 hr, negative margins confirmed through pathology", "value": "No fluorescence was detected"},
      {"measurement": "Fluorescence in BC and HNSCC tumors", "setting": "[1]; 3-5 hour dose schedule timing, SPY Elite camera", "value": "verified in all visible BC and HNSCC tumors"},
      {"measurement": "Ability to image tumors 3-6 hours after I.V. injection", "setting": "[1]; Phase 2, breast cancer, HNSCC, prostate cancer, ovarian cancer, 2-3 mg/kg", "value": "demonstrated"},
      {"measurement": "Surgical Margin by Fluorescence", "setting": "[2]", "value": "Negative"},
      {"measurement": "Adverse effects", "setting": "[3]", "value": "no adverse effects"},
      {"measurement": "Fluorescence on adding increasing amounts of Compound 1", "setting": "[4]; human plasma with HCl", "value": "increase in fluorescence"},
      {"measurement": "Fluorescence on adding increasing amounts of Compound 1", "setting": "[4]; human plasma, no acid", "value": "did not show any increase in fluorescence"}
    ]}
  ]
}
